Test results published in PubChem BioAssay (NCI).
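Following 48 hours of exposure in 96-well plates, responses at five concentrations were used to interpolate endpoints linearly. At the GI50, growth is halved. TGI: total growth inhibition.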

Assays:
Experiment in all cases: NCI anticancer screen, dose series, 48 h
NCI-H226 lung = tested on: NCI-H226 lung
SF-539 CNS = tested on: SF-539 CNS
PC-3 prostate = tested on: PC-3 prostate
UACC-257 melanoma = tested on: UACC-257 melanoma
DU-145 prostate = tested on: DU-145 prostate
HOP-62 NSCLC = tested on: HOP-62 NSCLC
HCT-15 colon = tested on: HCT-15 colon
RPMI-8226 leukemia = tested on: RPMI-8226 leukemia
MDA-MB-231 breast = tested on: MDA-MB-231 breast
HCC-2998 colon = tested on: HCC-2998 colon

Compound | TGI (NCI-H226 lung) | TGI (SF-539 CNS) | TGI (PC-3 prostate) | TGI (UACC-257 melanoma) | TGI (DU-145 prostate) | TGI (HOP-62 NSCLC) | TGI (HCT-15 colon) | TGI (RPMI-8226 leukemia) | TGI (MDA-MB-231 breast) | TGI (HCC-2998 colon) | GI50 (NCI-H226 lung)
CC(=O)c1ccc2c(c1)N(CCCN1CCN(CCO)CC1)c1ccccc1C2 | 30.9 µM | 33.1 µM | 27.8 µM | 18.9 µM | 28 µM | 30.3 µM | 28.8 µM | 30.1 µM | 26.7 µM | – | –
O=C(O)C(O)C(O)C(O)C(=O)CO (configuration not stated) | > 100 µM | > 100 µM | > 100 µM | > 100 µM | > 100 µM | > 100 µM | > 100 µM | > 100 µM | > 100 µM | > 100 µM | –
CCOC(=O)C(=O)NCCCN1CCOCC1 | > 100 µM | > 100 µM | – | > 100 µM | – | > 100 µM | > 100 µM | – | – | > 100 µM | –
C1=CC(=[N+]2N=C(c3ccccc3)CC2c2ccccc2)C=CC1=C1SC(c2ccccc2)(c2ccccc2)c2ccccc21 (configuration not stated) | > 100 µM | > 100 µM | > 100 µM | – | > 100 µM | > 100 µM | > 100 µM | – | > 100 µM | > 100 µM | –
CCCCCOC(=O)c1cc2cc(CCl)ccc2oc1=O | 38 µM | > 93.3 µM | 15.2 µM | 5.96 µM | 17.1 µM | 32.9 µM | 35.4 µM | > 80.1 µM | 37.5 µM | 28.1 µM | –
Nc1cc(-c2ccc(Cl)cc2)nn1-c1nc2ccccc2nc1-c1ccccc1 | > 100 µM | > 100 µM | > 100 µM | > 100 µM | > 100 µM | > 100 µM | > 100 µM | > 100 µM | > 100 µM | > 100 µM | –
CCCSc1ccc2[nH]c(N3C(=O)/C(=C/c4cc(OC)c(OC)c(OC)c4)N=C3c3ccccc3)cc2c1 | > 37.5 µM | 23.6 µM | > 37.5 µM | > 37.5 µM | > 37.5 µM | > 19.2 µM | > 37.5 µM | 27.1 µM | > 37.5 µM | > 32.6 µM | –
COC(CN(C=O)[C@@H](c1ccc(Cl)cc1)c1cc2ccccc2o1)OC | 34 µM | 34.3 µM | 45.6 µM | 28 µM | 30.9 µM | 43.5 µM | 32.8 µM | 35.3 µM | 37 µM | – | –
O=C1/C(=C\c2ccc(F)cc2)CCOc2c1ccc1ccccc21 | > 100 µM | 48.5 µM | > 100 µM | 54.4 µM | 98 µM | 63.8 µM | > 100 µM | 9.45 µM | > 47.7 µM | 17.7 µM | 33.6 µM
O=c1c2ccccc2[nH]c(=S)n1-c1ccc(N=Nc2cccc3cc(O)ccc23)cc1 | > 100 µM | > 100 µM | > 100 µM | > 100 µM | > 100 µM | > 100 µM | > 100 µM | > 100 µM | > 100 µM | > 100 µM | –
COC(=O)C[C@H](COCc1ccccc1)NC(=O)C[C@H](COCc1ccccc1)NC(=O)OC(C)(C)C | > 100 µM | > 100 µM | 77.6 µM | – | 44.9 µM | 49.2 µM | > 100 µM | > 100 µM | > 100 µM | – | –
O=C1c2ccccc2C(C2c3ccccc3C(=O)c3cc(Br)ccc32)c2ccc(Br)cc21 (configuration not stated) | > 100 µM | – | > 100 µM | > 100 µM | > 100 µM | > 100 µM | > 100 µM | > 100 µM | > 100 µM | > 100 µM | –
Nc1ccc(Oc2ccc(C34CC5CC(C3)CC(c3ccc(Oc6ccc(N)cc6)cc3)(C5)C4)cc2)cc1 | 75.2 µM | 36.4 µM | 25.7 µM | 40.9 µM | 33.3 µM | > 56.7 µM | > 63.9 µM | > 100 µM | 32.9 µM | 19.3 µM | –
O=C1CC2(CCC(O)(c3cccs3)C(C(=O)c3cccs3)C2)C(=O)c2ccccc2N1 (configuration not stated) | > 100 µM | > 100 µM | > 100 µM | > 100 µM | > 100 µM | > 100 µM | > 100 µM | – | > 100 µM | > 100 µM | –
CC(C)(C)[Si](C)(C)OCC1OC(n2cnc3c(N)ncnc32)CC1OS(C)(=O)=O (configuration not stated) | > 100 µM | – | > 100 µM | > 100 µM | > 100 µM | > 100 µM | > 100 µM | > 100 µM | > 100 µM | – | –
C/C(N=Nc1nc2ccccc2[nH]1)=C1/C=CC=CN1O | > 100 µM | > 100 µM | > 100 µM | > 100 µM | > 100 µM | > 100 µM | > 100 µM | > 100 µM | > 100 µM | > 100 µM | –
